According to patent publication EP1007514B1, “HETEROCYCLIC KETONES AS NPY Y5 ANTAGONISTS” (BAYER CORPORATION, priority 1997, dated 1999):

Experiments:
[1] = target: T1, human NPY Y1 receptor subtype (Homo sapiens, UniProt P25929); assay: NPY Y1 receptor binding, [125I]PYY on SK-N-MC cells; details: test compounds at 5 µM final concentration, [125I]PYY about 50 pM, read-out: IC50 (µM) NPY receptor indicated hY1
T1 construct: host or cells: SK-N-MC cells
T1 sequence (P25929 1-384): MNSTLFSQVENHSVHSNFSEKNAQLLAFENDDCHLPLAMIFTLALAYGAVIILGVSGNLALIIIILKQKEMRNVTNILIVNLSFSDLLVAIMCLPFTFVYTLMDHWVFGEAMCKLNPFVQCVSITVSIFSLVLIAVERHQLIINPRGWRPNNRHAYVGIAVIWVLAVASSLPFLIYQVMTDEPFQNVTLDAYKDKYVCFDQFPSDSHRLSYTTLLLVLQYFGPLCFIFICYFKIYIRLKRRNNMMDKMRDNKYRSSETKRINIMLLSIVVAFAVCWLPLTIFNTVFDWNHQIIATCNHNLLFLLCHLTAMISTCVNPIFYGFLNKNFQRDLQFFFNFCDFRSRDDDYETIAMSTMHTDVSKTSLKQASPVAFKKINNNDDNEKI
Method: For instance, test compounds antagonistic to human NPY Y1 receptor subtype can be identified by a modified method of Gordon et al., J. Neurochem. 55:506-513,(1990), wherein SK-N-MC cells (ATCC, Rockville, ND) are plated in 24-well plates. Once confluent, the cells are rinsed with Dulbecco's phosphate buffered saline (DPBS). Cells are then preincubated in binding buffer containing serum-free DMEM, 25 mM HEPES (pH 7.3), 0.5% bovine serum albumin (BSA), 0.1% bacitracin and 0.1mM phenylmethylsulfonyl fluoride for 30 minutes at room temperature. Test compounds at a final concentration of 5 µM, and [^125I] PYY (about 50 pM:NEN-DuPont) are added to the wells, and the cells are incubated for an additional 3 hours at room temperature, followed by rinsing with ice-cold DPBS. Nonspecific binding is defined with 1 µM NPY. After lysing the cells with 1% Triton X-100, the amount of radioactivity in the lysates is quantitated with a gamma counter.

[2] = target: T2, human NPY Y5 receptor subtype (Homo sapiens, UniProt Q15761); assay: NPY Y5 receptor membrane binding, [125I]PYY (human); details: membrane protein; 75-100 pM [125I]PYY; 50% inhibition of specific binding; read-out: IC50 (µM) NPY receptor indicated hY5
T2 sequence (Q15761 1-445): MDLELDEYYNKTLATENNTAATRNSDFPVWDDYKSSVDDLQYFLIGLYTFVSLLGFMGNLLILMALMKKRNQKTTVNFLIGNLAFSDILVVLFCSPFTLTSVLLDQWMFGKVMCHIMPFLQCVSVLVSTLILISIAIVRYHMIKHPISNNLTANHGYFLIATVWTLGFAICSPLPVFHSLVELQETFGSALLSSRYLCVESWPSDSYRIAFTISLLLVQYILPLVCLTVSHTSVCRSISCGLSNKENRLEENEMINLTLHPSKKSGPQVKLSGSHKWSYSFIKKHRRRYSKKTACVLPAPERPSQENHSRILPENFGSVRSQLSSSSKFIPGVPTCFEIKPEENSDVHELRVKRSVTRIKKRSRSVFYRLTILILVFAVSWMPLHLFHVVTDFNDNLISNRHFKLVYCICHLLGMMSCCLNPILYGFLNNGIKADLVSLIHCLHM
Method: Assays to determine human and rat NPY Y5 receptor subtype binding affinity are performed on GF/C Millipore 96-well plates pretreated with 0.02% polyethylenimine. The binding buffer is 25 mM Tris, 120 mM NaCl, 5 mM KCl, 1.2 mM KH2PO4, 2.5 mM CaCl2, 1.2 mM MgSO4, 0.1% BSA and 0.5 mg/ml bacitracin, pH 7.4. Samples consist of membrane protein, 75-100 pM [^125I] PYY (porcine, NEN-DuPont) and test compounds diluted in binding buffer. Nonspecific binding is defined by 1 µM PYY. After a 2 hour incubation at room temperature with constant mixing, the samples are aspirated on a vacuum manifold and rinsed with ice-cold binding buffer. The amount of radioactivity in each well is quantitated with either gamma counting or liquid scintillation. IC50 values, which correspond to 50% inhibition of specific binding, are determined with non-linear regression analysis.

human Y4/PP1 = human Y4/PP1 (Homo sapiens, UniProt P50391); assay: NPY Y4/PP1 receptor membrane binding, [125I] human PP; details: membrane protein; 50 pM [125I] human PP; test compounds at 5 µM final concentration; read-out: IC50 (µM) NPY receptor indicated hY4/pp1
Method: Assays to determine binding affinity for human NPY Y2 and Y4/PP1 receptor subtypes are performed on GF/C Millipore 96-well plates pretreated with 0.02% polyethylenimine. The binding buffer for rat NPY Y2 receptor subtype binding is Krebs-Ringer bicarbonate (pH 7.4) containing 0.01% BSA and 0.005% bacitracin. Samples consist of membrane protein, 25 pM [^125I]PYY and test compounds at 5 µM final concentration. Nonspecific binding is defined by 1 µM NPY. The binding buffer for human Y4/PP1 binding consists of 137 mM NaCl, 5.4 mM KCl, 0.44 mM KH2PO4, 1.26 mM CaCl2, 0.81 mM MgSO4, 20 mM HEPES, 1 mM dithiothreitol, 0.1% bacitracin, 100 mg/l streptomycin sulfate, 1 mg/l aprotinin, 10 mg/ml soybean trypsin inhibitor and 0.3% BSA, pH 7.4. Samples consist of membrane protein, 50 pM human [^125I] human PP (hPP:NEN DuPont, Boston MA) and test compounds diluted to a final concentration of 5 µM. One µM hPP is used to define nonspecific binding. After a 2 hour incubation at room temperature with constant mixing, the samples are aspirated on a vacuum manifold, and rinsed with ice-cold binding buffer. The amount of radioactivity in each well is quantitated with either gamma counting or liquid scintillation.

Chain of human Y4/PP1 (P50391 whole entry): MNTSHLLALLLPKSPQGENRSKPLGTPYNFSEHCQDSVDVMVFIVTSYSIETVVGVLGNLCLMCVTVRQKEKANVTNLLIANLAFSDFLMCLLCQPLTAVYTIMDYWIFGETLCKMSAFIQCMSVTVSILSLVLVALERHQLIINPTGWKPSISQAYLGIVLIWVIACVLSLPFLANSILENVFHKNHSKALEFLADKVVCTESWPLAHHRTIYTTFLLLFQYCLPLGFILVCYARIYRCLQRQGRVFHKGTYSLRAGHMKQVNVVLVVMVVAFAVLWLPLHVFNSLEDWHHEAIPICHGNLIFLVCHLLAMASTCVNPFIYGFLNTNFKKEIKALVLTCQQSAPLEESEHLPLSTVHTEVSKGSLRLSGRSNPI

For `Cc1ccc(SCC(C(=O)c2ncc[nH]2)c2ccccc2)cc1` (stereo not drawn) [Compound 2, (1H-Imidazol-2-yl)-2-phenyl-3-p-tolylsulfanyl-propan-1-one], the IC50 [1] was greater than 5 µM, the IC50 [2] was 0.83 µM and the IC50 (human Y4/PP1) was greater than 5 µM.
Compound `Cc1ccc(S(=O)(=O)CC(C(=O)c2nc3ccccc3s2)c2ccccc2)cc1` (stereo not drawn) [Compound 6, 1-Benzothizol-2-yl-2-phenyl-3-(toluene-4-sulfonyl)-propan-1-one] has an IC50 [1] greater than 5 µM, an IC50 [2] of 8.8 µM and an IC50 (human Y4/PP1) greater than 5 µM.
`Cc1ccc(S(=O)(=O)CC(C(=O)c2nc3cc(C)c(C)cc3[nH]2)c2ccccc2)cc1` (stereo not drawn) [Compound 7, (5,6-Dimethyl-1H-benzoimidazol-2-yl)-2-phenyl-3-(toluene-4-sulfonyl)-propan-1-one] gave an IC50 [1] greater than 5 µM, an IC50 [2] of 0.06 µM and an IC50 (human Y4/PP1) greater than 5 µM.
Compound `O=C(c1nc2ccccc2[nH]1)C(CS(=O)(=O)c1ccccc1)c1ccccc1` (stereo not drawn) [Compound 8, 3-Benzenesulfonyl-1-(1H-benzoimidazol-2-yl)-2-phenyl-propan-1-one] has an IC50 [1] greater than 5 µM, an IC50 [2] of 0.022 µM and an IC50 (human Y4/PP1) greater than 5 µM.
In the case of `COc1ccc(S(=O)(=O)CC(C(=O)c2nc3ccccc3[nH]2)c2ccccc2)cc1` (stereo not drawn) [Compound 10, 1-(1H-Benzoimidazol-2-yl)-3-(4-methoxy-benzenesulfonyl)-2-phenyl-propan-1-one], the IC50 [1] is reported as greater than 5 µM, the IC50 [2] is reported as 0.011 µM and the IC50 (human Y4/PP1) is reported as greater than 5 µM.
`COc1ccc2[nH]c(C(=O)C(CS(=O)(=O)c3ccc(C)cc3)c3ccccc3)nc2c1` (stereo not drawn) [Compound 14, 1-(5-Methoxy-1H-benzoimidazol-2-yl)-2-phenyl-3-(toluene-4-sulfonyl)-propan-1-one] showed an IC50 [1] greater than 5 µM, an IC50 [2] of 0.08 µM and an IC50 (human Y4/PP1) greater than 5 µM.
